Data published in paper PMC7417813, “Synthesis and Biological Evaluation of Thio-Derivatives of 2-Hydroxy-1,4-Naphthoquinone (Lawsone) as Novel Antiplatelet Agents” (Frontiers in Chemistry, 2020).
“Also recorded” adds a separate entry of the source. Where two headings read alike, the source gives them in different places.

Tests used:
[1] = test system: collagen-stimulated platelets; test: Platelet aggregation induced by collagen (light transmission, lumi-aggregometer); assay type: cell-based, human; conditions: platelet aggregation induced by collagen (1 μg/mL), washed platelets pre-incubated 5 min at 37°C, read-out: IC50 (μM) ± SD Collagen (1 μg/mL)
Description: (§1) Platelet aggregation was evaluated using a lumi-aggregometer (Chrono-Log, Haverton, PA, USA) and monitored by light transmission according to Fuentes et al. (Fuentes et al., [2014a]; Mendez et al., [2020]). Briefly, washed platelets (200 × 10^9 platelets/L) were pre-incubated for 5 min at 37°C and pH 7.4 with vehicle or different doses of compounds; then platelet aggregation was induced by TRAP-6 (5 μM) or collagen (1 μg/mL) and measured for 5 min at 37°C while stirring.
(§2) The data obtained were presented as a mean ± standard deviation (SD) of three independent experiments and analyzed using Prism 8.3 software (GraphPad Inc., San Diego CA, USA). The half-maximal inhibitory concentration (IC50) was calculated from dose-response curves. Differences between samples were analyzed using Tukey or paired t-test (Vaiyapuri et al., [2013]). P-values < 0.05 were considered as significant (Fuentes et al., [2014b]; Munoz-Gutierrez et al., [2017]).

washed platelets = test: Lactate dehydrogenase (LDH)-based cytotoxicity assay on washed platelets; conditions: for cytotoxicity on platelets by LDH leakage (in words): 100 μM, 10 min at 37°C; for Cytotoxic activity Mean (%) ± SD: LDH release as percentage of total enzyme activity (0.3% Triton X-100 lysis), 100 μM compound, 10 min, 37°C, washed platelets
Description: Platelets were obtained from citrated whole blood of healthy volunteers (two weeks drugs-free) with written informed consent, as previously described (Fuentes et al., [2014a]).
Washed platelets (200 × 10^9 platelets/L) were incubated for 10 min at 37°C with DMSO (vehicle) 0.2% or 100 μM of compounds. Then, platelets are centrifuged (800 × g for 8 min), and 50 μL aliquots of the resulting supernatant analyzed by the LDH assay (Cayman Chemical, USA).

[2] = test system: TRAP-6-stimulated platelets; test: Platelet aggregation induced by TRAP-6 (light transmission, lumi-aggregometer); assay type: cell-based, human; conditions: platelet aggregation induced by TRAP-6 (5 μM), washed platelets pre-incubated 5 min at 37°C, read-out: IC50 (μM) ± SD TRAP-6 (5 μM)
Description: as §1, §2

GPIIb/IIIa = GPIIb/IIIa activation by PAC-1 antibody binding (flow cytometry); assay type: cell-based, human; conditions: Figure 3D
Description: (§3) Externalization of phosphatidylserine, glycoprotein (GP) IIb/IIIa activation, P-selectin expression, CD63 release, and ROS levels on platelets were determined by flow cytometry (Ritchie et al., [2000]; Fuentes et al., [2014b]; Walsh et al., [2014]). All results were analyzed in the Accuri C6 flow cytometer (BD, Biosciences, USA).
(§4) Figure 3 Antiplatelet activity of compound 4. (A) Externalization of phosphatidylserine was evaluated by annexin-V binding. (B) Levels of CD63 on the surface of platelets after activation by TRAP-6 (5 μM) or collagen (1 μg/mL). (C) P-selectin expression was measured by flow cytometry in platelets stimulated with TRAP-6 (5 μM) or collagen (1 μg/mL). (D) GPIIb/IIIa activation stimulated by TRAP-6 (5 μM) or collagen (1 μg/mL) was determined by flow cytometry using the PAC-1 antibody. The graph depicts the mean ± SD of n = 3 experiments. The black graph is the control of resting platelets. ^*p < 0.05, ^**p < 0.01, and ^***p < 0.001 vs. 0 (vehicle DMSO 0.2%).
Small structural changes led to the synthesis of non-toxic lawsone thio-derivatives with potent antiplatelet activity (Tables 1, 3). […] Thus, we decided to deeply analyze the effects of compound 4 in platelets. […] We analyzed the activated form of GPIIb/IIIa by studying the binding of FITC-labeled PAC-1 antibody by flow cytometry (Fuentes et al., [2014a]).

platelets = test: Externalization of phosphatidylserine by annexin-V binding (flow cytometry); assay type: cell-based, human; conditions: Figure 3A
Description: as §3, §4

P-selectin = P-selectin expression on platelets (flow cytometry); assay type: cell-based, human; conditions: compound at 10 and 40 μM, Figure 3C
Description: as §3, §4

CD63 = CD63 levels on the surface of platelets (flow cytometry); assay type: cell-based, human; conditions: Figure 3B
Description: as §3, §4

Molecule	IC50 ([1]; Homo sapiens)	melting point	IC50 ([2]; Homo sapiens)	cytotoxicity on platelets by LDH leakage (in words) (washed platelets)	Cytotoxic activity Mean (%) ± SD (washed platelets)	other results
O=C1C=C(O)C(=O)c2ccccc21 [Lawsone, 2-hydroxy-1,4-naphthoquinone]	–	–	–	had a cytotoxic activity	32.80 ± 3.13 %	–
2-((4-Bromophenyl)thio)-3-hydroxynaphthalene-1,4-dione [Compound 4]	–	–	–	no cytotoxicity was observed; also recorded: did not exert cytotoxicity; also recorded: non-toxic	22.38 ± 5.78%	PAC-1 binding to platelets (GPIIb/IIIa activation) (GPIIb/IIIa; TRAP-6-induced): inhibited; PAC-1 binding to platelets (GPIIb/IIIa activation) (GPIIb/IIIa; collagen-induced): inhibited; IC50 [1]: 5.58 ± 1.01 µM; phosphatidylserine exposure (platelets): unable to affect; IC50 [2]: 15 ± 1.52 µM; P-selectin expression on activated platelets (P-selectin; TRAP-6 (5 μM)): inhibited; P-selectin expression on activated platelets (P-selectin; collagen (1 μg/mL)): inhibited; expression of CD63 on platelets' membrane (CD63; after activation with TRAP-6 (5 μM)): decreased; expression of CD63 on platelets' membrane (CD63; after activation with collagen (1 μg/mL)): decreased
O=C1C(O)=C(Sc2ccccc2)C(=O)c2ccccc21 [Compound 1, 2-Hydroxy-3-(phenylthio)naphthalene-1,4-dione]	14.6 ± 5.43 µM	–	155 ± 55.2 µM	did not exert cytotoxicity	22.35 ± 2.94%	–
2-((2-bromophenyl)thio)-3-hydroxynaphthalene-1,4-dione [Compound 2]	–	–	–	did not exert cytotoxicity	14.72 ± 10.92%	IC50 [1]: 11.2 ± 3.9 µM; IC50 [2]: 112 ± 17.5 µM

Now from value to molecule, other results behind:

IC50 ([1]; Homo sapiens)	melting point	IC50 ([2]; Homo sapiens)	Molecule	cytotoxicity on platelets by LDH leakage (in words) (washed platelets)	Cytotoxic activity Mean (%) ± SD (washed platelets)	other results
12.1 ± 1.21 µM	268 °C (dec.)	108 ± 53 µM	O=C1C(O)=C(Sc2ccc(F)cc2)C(=O)c2ccccc21 [Compound 8, 2-((4-Fluorophenyl)thio)-3-hydroxynaphthalene-1,4-dione]	did not exert cytotoxicity	21.62 ± 4.17%	–
11.1 ± 1.69 µM	268.7 °C (dec.)	134 ± 17.3 µM	O=C1C(O)=C(Sc2cccc(F)c2)C(=O)c2ccccc21 [Compound 7, 2-((3-Fluorophenyl)thio)-3-hydroxynaphthalene-1,4-dione]	did not exert cytotoxicity	21.50 ± 2.37%	–
–	235 °C (dec.)	–	COC(=O)c1ccccc1SC1=C(O)C(=O)c2ccccc2C1=O [Compound 5, Methyl 2-((3-hydroxy-1,4-dioxo-1,4-dihydronaphthalen-2-yl)thio)benzoate]	had a cytotoxic activity	31.12 ± 3.06 %	–
10.6 ± 2.25 µM	–	> 500 µM	O=C1C(O)=C(Sc2ccccc2F)C(=O)c2ccccc21 [Compound 6, 2-((2-Fluorophenyl)thio)-3-hydroxynaphthalene-1,4-dione]	did not exert cytotoxicity	21.77 ± 2.37%	–
